Measurements reported in patent US12351596B2 (priority 2019, dated 2025).
“Also recorded” adds a separate entry of the source.

Tested on: antibodies present in serum samples from melioidosis patients
Type: binding, human

Row | Compound | ability to detect antibodies present in serum samples from melioidosis patients | ability to detect the antibodies compared with other antigens
1 | CO[C@H]1[C@@H](OC(C)=O)[C@H](O[C@@H]2[C@@H](O)[C@H](O[C@@H]3[C@H](O)[C@H](C)O[C@@H](O[C@@H]4[C@@H](O)[C@H](OCCCCCN)O[C@H](CO)[C@H]4O)[C@@H]3OC(C)=O)O[C@H](CO)[C@H]2O)O[C@@H](C)[C@H]1OC(C)=O.Cl [tetrasaccharide 8, (5-Amino-1-pentyl) 2,4-di-O-acetyl-6-deoxy-3-O-methyl-α-L-talopyranosyl-(1→3)-β-D-glucopyranosyl-(1→3)-2-O-acetyl-6-deoxy-α-L-talopyranosyl-(1→3)-β-D-glucopyranoside hydrochloride] | exquisite mimics of the whole Bp and Bm LPS OAgs; also recorded: able to detect antibodies present in serum samples from melioidosis patients | –
2 | (5-Amino-1-pentyl) 2-O-acetyl-6-deoxy-3-O-methyl-α-L-talopyranosyl-(1→3)-β-D-glucopyranosyl-(1→3)-2-O-acetyl-6-deoxy-α-L-talopyranosyl-(1→3)-δ-D-glucopyranoside hydrochloride [tetrasaccharide 9] | exquisite mimics of the whole Bp and Bm LPS OAgs; also recorded: able to detect antibodies present in serum samples from melioidosis patients | as effective as tetrasaccharide 8
